One series in a line: Hygroscopicity. The series is classed as physicochemical. The text has this: (§1) In the study on polymorphism of compound (I), six kinds of polymorphs (A01, A09, A16, A20, A30 and A43 crystals) were found. For each of those polymorphs, hygroscopicity, stability in solid state, solubility and changes in crystallinity on compounding with various solvents were studied. However, the A30 crystal was not studied since it contains ethanol.

The conditions of series [1]: methanesulfonate.
Another series can be described thus: Stability in solid state. It is filed as physicochemical. Also noted: Water content: unit not given here.
Source text: The crystallinity of hydrochloride was decreased when it was mixed with ethanol.
as §1
(2) Stability in solid state

A short description of another series: physchem. The settings on record: thermodynamic from solid.
A short description of series [2]: Changes in crystallinity upon compounding with ethanol. The series is classed as physicochemical. From the text:
(2) Changes in crystallinity upon compounding
For compound (I) and hydrochloride (B), changes in crystallinity upon compounding with ethanol were studied.

The mark [3] stands for this setting: Table 1, listed as Compound (I) (A01 crystal).
[4] abbreviates: Table 4, room temperature, 30-min shaking.
Where [5] appears, read: 70°C, 75% RH, 9 days, methanesulfonate.
The mark [6] stands for this setting: distilled water for injection, water.
[7] abbreviates: physiological saline solution, saline or isotonic.

Structures can show the parent of a compound that is named as a salt. Where two headings read alike, the source gives them in different places.

For orientation: solubility means the dissolved amount per volume that the medium holds.

Regarding `CS(=O)(=O)O.O=C(Nc1cccc(-n2c(=O)c(Cc3cccnc3)nc3cccnc32)c1)c1cc(Cl)cc(Cl)c1` [A01 crystal, 4-(3-(3,5-dichlorobenzoylamino)phenyl)-2-(3-pyridyl)methyl-3-oxo-3,4-dihydropyr ido[2,3-b]pyrazine methanesulfonate], the Hygroscopicity entry in the series “Hygroscopicity” (listed as A01, methanesulfonate) was “less hygroscopic”. Besides, the “Solubility, Distilled water for injection” value in series [1] (setting [3]) was “improved”. Moreover, the “Solubility, Physiological saline solution” value in series [1] (setting [3]) is “improved”. In series [1] (setting [4]), the “Solubility, Distilled injection for injection” value is 637 µg/mL. The Crystal form result in “Stability in solid state” (70°C, 75% RH, 9 days) is reported as “Unchanged”; in “Stability in solid state” (70°C, 9 days), “Unchanged”. In addition, the “% Residue” value in “Stability in solid state” (setting [5]) stood at 99.9%; in “Stability in solid state” (Initial), 100.0%. Further, the Appearance entry in “Stability in solid state” (setting [5]) is “Yellowish white crystalline powder powder”; in the series “Stability in solid state” (70°C, 9 days, methanesulfonate), “Yellowish white crystalline powder”; in the series “Stability in solid state” (Initial, methanesulfonate), “Yellowish white crystalline powder”. The Water content in “Stability in solid state” (setting [5]) stood at 4.76; in “Stability in solid state” (70°C, 9 days, methanesulfonate), 4.23; in the series “Stability in solid state” (Initial, methanesulfonate) it was 4.42. The solubility came to 637 µg/mL in “physchem” (setting [6]) and 43.9 µg/mL in the series “physchem” (setting [7]). The compound further returned a solubility at 30 min in the series “physchem” (setting [7]) of 43.9 µg/mL. Besides, the “Influence of compounding with ethanol on crystallinity” value (shortened to “Influence of compounding with ethanol”) in series [2] (listed as Compound (I) (A01 crystal), methanesulfonate) was “No change (changed into in A16 crystal)”.

Regarding `CS(=O)(=O)O.O=C(Nc1cccc(-n2c(=O)c(Cc3cccnc3)nc3cccnc32)c1)c1cc(Cl)cc(Cl)c1` [Example A09, 4-(3-(3,5-dichlorobenzoylamino)phenyl)-2-(3-pyridyl)methyl-3-oxo-3,4-dihydropyrido[2,3-b]pyrazine methanesulfonate], the Hygroscopicity entry in “Hygroscopicity” (methanesulfonate) is “highly hygroscopic”.

As for `CS(=O)(=O)O.O=C(Nc1cccc(-n2c(=O)c(Cc3cccnc3)nc3cccnc32)c1)c1cc(Cl)cc(Cl)c1` [compound (I), 4-[3-(3,5-dichlorobenzoylamino)phenyl]-2-(3-pyridylmethyl)-3-oxo-3,4-dihydropyr ido[2,3-b]pyrazine methanesulfonate], in series [2] (methanesulfonate), the “Influence of compounding with ethanol” value is “no change in crystallinity”.

Regarding `CS(=O)(=O)O.O=C(Nc1cccc(-n2c(=O)c(Cc3cccnc3)nc3cccnc32)c1)c1cc(Cl)cc(Cl)c1` [A20 crystal, 4-(3-(3,5-dichlorobenzoylamino)phenyl)-2-(3-pyridyl)methyl-3-oxo-3,4-dihydropyr ido[2,3-b]pyrazine methanesulfonate], in the series “Hygroscopicity” (listed as A20, methanesulfonate), the Hygroscopicity result is “less hygroscopic”. The “Solubility, Distilled injection for injection” value in series [1] (setting [4]) stood at 8.76 µg/mL. Also, the “Solubility, Physiological saline solution” value in series [1] (setting [4]) was 0.0645 mg/ml. The Crystal form entry was “Unchanged” in the series “Stability in solid state” (70°C, 75% RH, 9 days) and “Unchanged” in the series “Stability in solid state” (70°C, 9 days). Further, the “% Residue” value in the series “Stability in solid state” (setting [5]) turned out to be 101.0%; in “Stability in solid state” (70°C, 9 days, methanesulfonate) it was 99.6%; in “Stability in solid state” (Initial), 100.0%. For the same compound, the Appearance result in the series “Stability in solid state” (setting [5]) was “Pale yellowish white crystalline powder”; in the series “Stability in solid state” (70°C, 9 days, methanesulfonate) it was “Pale yellowish white crystalline powder”; in the series “Stability in solid state” (Initial, methanesulfonate) it was “Pale yellowish white white crystalline powder”. Besides, the Water content was 1.22 in the series “Stability in solid state” (setting [5]); 0.30 in the series “Stability in solid state” (70°C, 9 days, methanesulfonate); 0.41 in the series “Stability in solid state” (Initial, methanesulfonate). The “change in crystal form” value in the series “Stability in solid state” (heat and humidity, summary of Table 3) is “no change”. Further, the “chemical stability against heat and humidity” value in the series “Stability in solid state” (summary of Table 3) is given as “chemically stable”.

For `O=C(Nc1cccc(-n2c(=O)c(Cc3cccnc3)nc3cccnc32)c1)c1cc(Cl)cc(Cl)c1.O=S(=O)(O)O` [sulfate, 4-(3-(3,5-dichlorobenzoylamino)phenyl)-2-(3-pyridyl)methyl-3-oxo-3,4-dihydropyrido[2,3-b]pyrazine sulfate, reference compound], the solubility in “physchem” (setting [6]) was 29.5 µg/mL; in “physchem” (setting [7]) it was 38.9 µg/mL.

Consider `O=C(Nc1cccc(-n2c(=O)c(Cc3cccnc3)nc3cccnc32)c1)c1cc(Cl)cc(Cl)c1` [hydrochloride (B), reference compound], for which the residual amount in the series “Stability in solid state” (ethanol-compounded solid, 70°C for 9 days) was determined as 91%. The “Influence of compounding with ethanol” value is “Crystallinity decreased” in series [2] (listed as Hydrochloride (B)) and “decreased” in series [2] (listed as hydrochloride).

`O=C(Nc1cccc(-n2c(=O)c(Cc3cccnc3)nc3cccnc32)c1)c1cc(Cl)cc(Cl)c1` [free base (A), 4-[3-(3,5-dichlorobenzoylamino)phenyl]-2-(3-pyridylmethyl)-3-oxo-3,4-dihydropyr ido[2,3-b]pyrazine, reference compound]: the solubility in “physchem” (setting [6]) and in “physchem” (setting [7]) was no more than 1 µg/mL throughout.

The values are drawn from patent EP1118615A1, “NOVEL SALTS OF PYRIDOPYRAZINE COMPOUND AND CRYSTALS THEREOF” (FUJISAWA PHARMACEUTICAL CO., LTD., priority 1998, dated 2000).
